Measurements published in paper PMC11203437, “Subtle Structural Differences Affect the Inhibitory Potency of RGD-Containing Cyclic Peptide Inhibitors Targeting SPSB Proteins” (International Journal of Molecular Sciences, 2024).
Peptide text beside a SMILES is read from it.

T1: SPSB2 (His6-tagged SPRY domain of human SPSB2, residues 22-220) (Homo sapiens, UniProt Q99619)
T1 construct: His6; made in house
T1 sequence (Q99619 22-220): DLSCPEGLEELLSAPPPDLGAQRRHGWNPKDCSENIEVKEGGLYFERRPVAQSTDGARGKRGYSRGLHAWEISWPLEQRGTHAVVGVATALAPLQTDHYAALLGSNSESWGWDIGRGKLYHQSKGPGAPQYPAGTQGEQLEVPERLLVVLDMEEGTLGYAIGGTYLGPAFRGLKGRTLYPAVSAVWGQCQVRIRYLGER

T2: His6-tagged SPRY domain of human SPSB2 (residues 22-220) (human, UniProt Q99619 22-220)
T2 construct: SPRY domain of human SPSB2, UniProtKB Q99619, residues 22-220; also called SPRY domain-containing SOCS box protein 2; source: recombinant, purified (Ni-NTA; complexes with peptide by gel filtration on Superdex 75); preparation previously described [26]
T2 sequence (looked up): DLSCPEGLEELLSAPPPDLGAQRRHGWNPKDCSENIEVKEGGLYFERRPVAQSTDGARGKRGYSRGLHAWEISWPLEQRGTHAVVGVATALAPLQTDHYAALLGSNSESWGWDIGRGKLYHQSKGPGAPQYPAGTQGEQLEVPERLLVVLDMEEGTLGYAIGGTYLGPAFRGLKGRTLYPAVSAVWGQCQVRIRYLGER

T3: GST-tagged SPRY domain of human SPSB4 (residues 28-232) (human, UniProt Q96A44 28-232)
T3 construct: SPRY domain of human SPSB4, UniProtKB Q96A44, residues 28-232; Cloned into pGEX-4T-2; source: recombinant, induced with IPTG in LB medium, purified (glutathione sepharose 4B)
T3 sequence (looked up): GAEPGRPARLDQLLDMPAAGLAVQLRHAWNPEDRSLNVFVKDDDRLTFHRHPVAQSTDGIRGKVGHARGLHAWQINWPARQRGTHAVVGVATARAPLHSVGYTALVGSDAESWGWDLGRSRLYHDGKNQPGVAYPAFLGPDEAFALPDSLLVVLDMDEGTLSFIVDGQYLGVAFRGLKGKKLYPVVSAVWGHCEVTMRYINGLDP

T4: GST-tagged SPRY domain of human SPSB1 (residues 28-232) (human, UniProt Q96BD6 28-232)
T4 construct: SPRY domain of human SPSB1, UniProtKB Q96BD6, residues 28-232; Cloned into pGEX-4T-2; also called SPSP1; source: recombinant, induced with IPTG in LB medium, purified (glutathione sepharose 4B)
T4 sequence (looked up): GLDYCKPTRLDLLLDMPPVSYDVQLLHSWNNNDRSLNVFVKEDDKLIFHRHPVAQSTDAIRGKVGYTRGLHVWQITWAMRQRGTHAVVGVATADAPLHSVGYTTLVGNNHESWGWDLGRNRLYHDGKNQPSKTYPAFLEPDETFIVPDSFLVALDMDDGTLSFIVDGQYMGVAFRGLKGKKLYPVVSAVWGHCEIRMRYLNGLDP


Assays:
[1] = molecular target: T1, SPSB2 (His6-tagged SPRY domain of human SPSB2, residues 22-220); test: isothermal titration calorimetry (ITC), binding to SPSB2; details: ITC Kd compared with cR8 Kd reported previously [19]
Description: (§1) The preparation of the recombinant His6-tagged SPRY domain of human SPSB2 (UniProtKB accession number Q99619, residues 22-220) has been previously described. Briefly, SPSB2 protein was initially purified using a Ni-NTA column and the amount of the protein was measured using the Bradford method. Either cR7 or cR9, at 1.5-fold molar excess, was then added to the protein and the SPSB2-cR7 and SPSB2-cR9 complexes were purified by gel filtration using a HiLoad 16/600 Superdex 75 column (GE Healthcare, Marlborough, MA, USA) equilibrated against a buffer containing 50 mM Tris-HCl pH 7.5, 150 mM NaCl, 5 mM DTT. To generate the GST-fusion proteins used in the cell lysate inhibition assay, the SPRY domains of human TRIM25 (UniProtKB Q14258, residues 433-630), SPSB2, SPSB1 (UniProtKB Q96BD6, residues 28-232), and SPSB4 (UniProtKB Q96A44, residues 28-232) were inserted into the pGEX-4T-2 vector (GE Healthcare, Marlborough, MA, USA). Protein expression was induced in an LB medium supplemented with 0.1 mM isopropyl β-D-1-thiogalactopyranoside (IPTG) at 18 °C overnight. […]
All ITC measurements were performed at 25 °C using iTC200 (Malvern Panalytical, Malvern, UK). […] The dissociation constant (Kd) was calculated, with the error from the Origin-calculated association constant (K) transferred as the same fraction of the primary value.

[2] = system: SPSB1-iNOS interaction (GST-tagged SPRY domain of SPSB1; full-length iNOS from RAW 264.7 lysate); test: cell lysate inhibition assay, SPSB1-iNOS interaction (GST pull-down, Western blot); format: biochemical, human (SPSB1); details: for inhibition of SPSB1-iNOS interaction: 1 μM peptide, LPS/IFN-γ-stimulated RAW 264.7 lysate, 2 h, GST pull-down, anti-iNOS Western blot
Description: (§2) Figure 6 Inhibition of SPSB-iNOS interactions by cR7, cR8, and cR9. Cell lysates from lipopolysaccharide/interferon-γ-stimulated RAW 264.7 cells were incubated with the GST-tagged SPRY domains of (A) SPSB2, (B) SPSB1, and (C) SPSB4 in the absence or presence of cR7, cR8, and cR9. GST-tagged SPRY domain of TRIM25 was used as a negative control. A 9-mer linear peptide (hK9) derived from the iNOS N-terminal region was included as a control. After interaction for 2 h, GST-fusion proteins were recovered via affinity purification using glutathione-sepharose 4B beads. Interaction with full-length iNOS was analyzed by Western blotting with anti-iNOS antibody (upper panels) and equivalent protein input was confirmed by reprobing the membranes with anti-GST antibody (lower panels).
as §1, with “overnight. Cells were harvested and resuspended in PBS, and then lysed using a cell disruptor (JNBIO, Guangzhou, China). Soluble GST-tagged proteins were purified using a glutathione sepharose 4B column prepared with PBS.” for “overnight.”

[3] = system: SPSB4-iNOS interaction (GST-tagged SPRY domain of SPSB4; full-length iNOS from RAW 264.7 lysate); test: cell lysate inhibition assay, SPSB4-iNOS interaction (GST pull-down, Western blot); format: biochemical, human (SPSB4); details: for displacement of full-length iNOS from SPSB4: 10 μM peptide, LPS/IFN-γ-stimulated RAW 264.7 lysate, 2 h, GST pull-down, anti-iNOS Western blot
Description: as §2
as §1, with “overnight. Cells were harvested and resuspended in PBS, and then lysed using a cell disruptor (JNBIO, Guangzhou, China). Soluble GST-tagged proteins were purified using a glutathione sepharose 4B column prepared with PBS.” for “overnight.”

[4] = system: SPSB2-iNOS interaction (GST-tagged SPRY domain of SPSB2; full-length iNOS from RAW 264.7 lysate); test: cell lysate inhibition assay, SPSB2-iNOS interaction (GST pull-down, Western blot); format: biochemical, human (SPSB2); details: for displacement of full-length iNOS from SPSB2: 10 μM peptide, LPS/IFN-γ-stimulated RAW 264.7 lysate, 2 h, pH 7.5 lysis buffer, GST pull-down, anti-iNOS Western blot
Description: as §2
as §1, with “overnight. Cells were harvested and resuspended in PBS, and then lysed using a cell disruptor (JNBIO, Guangzhou, China). Soluble GST-tagged proteins were purified using a glutathione sepharose 4B column prepared with PBS.” for “overnight.”

[5] = molecular target: T2, His6-tagged SPRY domain of human SPSB2 …; test: ITC; 100 μM cR7 or cR9 titrated into 10 μM SPSB2; 25 °C; 50 mM Tris-HCl pH 7.5, 150 mM NaCl, 5 mM DTT; single binding site model; details: both partners purified
[6] = molecular target: T3, GST-tagged SPRY domain of human SPSB4 …; test: pull-down; competition: 1 μM or 10 μM cyclic peptide added to the RAW 264.7 lysate with 2 μg/mL GST-tagged SPRY domain for 2 h; iNOS recovered on glutathione sepharose 4B read by Western blot; details: both partners purified
[7] = molecular target: T4, GST-tagged SPRY domain of human SPSB1 …; test: as above; details: both partners purified
[8] = overall comparison of cR7, cR8 and cR9, 1 or 10 μM, Western blot

Row | Molecule | SPSB2-binding affinity, fold higher than cR8 [1] | Kd [5] | binding result [6] | binding result [7] | stoichiometry N [5] | inhibition of SPSB1-iNOS interaction [2] | overall inhibition of SPSB1-iNOS interaction, relative [2, 8] | displacement of full-length iNOS from SPSB4 [3] | overall inhibition of SPSB4-iNOS interaction, relative [3, 8] | displacement of full-length iNOS from SPSB2 [4] | overall inhibition of SPSB2-iNOS interaction, relative [4, 8]
1 | CC[C@H](C)[C@@H]1NC(=O)[C@H](CC(=O)O)NC(=O)CNC(=O)[C@H](CCCNC(=N)N)NC(=O)[C@H](CC(N)=O)NC(=O)[C@H](CC(N)=O)NC(=O)[C@H](CC(N)=O)NC1=O [cR7, cyclo(RGDINNN)] (cyclo(RGDINNN)) | ~ 6.5 fold |  |  |  |  | can effectively inhibit SPSB1-iNOS interaction | stronger inhibition | able to displace full-length iNOS binding to SPSB4 | stronger inhibition | able to displace full-length iNOS binding to SPSB2 | stronger inhibition
2 | RGDINNN (head-to-tail amide-cyclized, Cyclic: the last residue is amide-bonded to the first; source: synthetic peptide (GL Biochem Ltd.)) [cR7, cyclo(RGDINNN)] |  | 103 nM | binds | binds | 1 |  |  |  |  |  | 

Continued, in another order:

Row | SPSB2-binding affinity, fold higher than cR8 [1] | Kd [5] | binding result [6] | binding result [7] | stoichiometry N [5] | Molecule | inhibition of SPSB1-iNOS interaction [2] | overall inhibition of SPSB1-iNOS interaction, relative [2, 8] | displacement of full-length iNOS from SPSB4 [3] | overall inhibition of SPSB4-iNOS interaction, relative [3, 8] | displacement of full-length iNOS from SPSB2 [4] | overall inhibition of SPSB2-iNOS interaction, relative [4, 8]
3 | ~ 2 fold |  |  |  |  | CC[C@H](C)[C@@H]1NC(=O)[C@H](CC(=O)O)NC(=O)CNC(=O)[C@H](CCCNC(=N)N)NC(=O)[C@H](CCC(=O)O)NC(=O)[C@H](C(C)C)NC(=O)[C@H](CC(N)=O)NC(=O)[C@H](CC(N)=O)NC(=O)[C@H](CC(N)=O)NC1=O [cR9, cyclo(RGDINNNVE)] (cyclo(RGDINNNVE)) | can effectively inhibit SPSB1-iNOS interaction |  | able to displace full-length iNOS binding to SPSB4 |  | able to displace full-length iNOS binding to SPSB2 | 
4 |  | 308 nM | binds | binds |  | RGDINNNVE (head-to-tail amide-cyclized, designed cyclic peptide: RGD motif joined to the iNOS-derived stretch DINNNVE; Cyclic: the last residue is amide-bonded to the first; source: synthetic peptide (GL Biochem Ltd.)) [cR9, cyclo(RGDINNNVE)] |  |  |  |  |  | 
